Data from PubChem BioAssay (NCI).
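Following 48 hours of exposure in 96-well plates, responses at five concentrations were used to interpolate endpoints linearly. GI50: concentration for 50% inhibition of growth. TGI: concentration producing complete growth inhibition.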

What was measured:
Test in all cases: inhibition of tumour cell growth, NCI panel, 48 h
[1] = tested on: 786-0 renal
[2] = tested on: A498 renal
[3] = tested on: A549 NSCLC
[4] = tested on: ACHN renal
[5] = tested on: CAKI-1 renal
[6] = tested on: COLO 205 colon
[7] = tested on: DU-145 prostate
[8] = tested on: HCC-2998 colon
[9] = tested on: HCT-116 colon
[10] = tested on: HCT-15 colon
[11] = tested on: HL-60(TB) leukemia
[12] = tested on: HOP-62 NSCLC
[13] = tested on: HS 578T breast
[14] = tested on: HT29 colon
[15] = tested on: IGROV1 ovarian
[16] = tested on: K-562 leukemia
[17] = tested on: LOX IMVI melanoma
[18] = tested on: M14 melanoma
[19] = tested on: MALME-3M melanoma
[20] = tested on: MCF7 breast
[21] = tested on: MDA-MB-231 breast
[22] = tested on: MDA-MB-435
[23] = tested on: NCI-H226 lung
[24] = tested on: NCI-H23 lung
[25] = tested on: NCI/ADR-RES ovarian
[26] = tested on: OVCAR-3 ovarian
[27] = tested on: OVCAR-4 ovarian
[28] = tested on: OVCAR-5 ovarian
[29] = tested on: OVCAR-8 ovarian
[30] = tested on: PC-3 prostate
[31] = tested on: RPMI-8226 leukemia
[32] = tested on: RXF 393 renal
[33] = tested on: SF-268 CNS
[34] = tested on: SF-295 CNS
[35] = tested on: SF-539 CNS
[36] = tested on: SK-MEL-2 melanoma
[37] = tested on: SK-MEL-28 melanoma
[38] = tested on: SK-MEL-5 melanoma
[39] = tested on: SK-OV-3 ovarian
[40] = tested on: SN12C renal
[41] = tested on: SNB-75 CNS
[42] = tested on: SR leukemia
[43] = tested on: SW-620 colon
[44] = tested on: T-47D breast
[45] = tested on: TK-10 renal
[46] = tested on: U251 CNS
[47] = tested on: UACC-257 melanoma
[48] = tested on: UACC-62 melanoma
[49] = tested on: UO-31 renal
[50] = tested on: BT-549 breast
[51] = tested on: CCRF-CEM leukemia
[52] = tested on: KM12 colon
[53] = tested on: SNB-19 CNS

Q: What does the source list for `N#CSCC1CC(O)(c2ccccc2)C(c2ccccc2)C(c2ccc(Cl)cc2)O1` (stereo unspecified)?
A: GI50 [1]: 1740 nM; TGI [1]: 3280 nM; GI50 [2]: 2160 nM; TGI [2]: 5630 nM; GI50 [3]: 1780 nM; TGI [3]: 4240 nM; GI50 [4]: 1600 nM; TGI [4]: 3020 nM; GI50 [5]: 1670 nM; TGI [5]: 4140 nM; GI50 [6]: 1460 nM; TGI [6]: 2840 nM; GI50 [7]: 2020 nM; TGI [7]: 4670 nM; GI50 [8]: 1840 nM; TGI [8]: 3350 nM; GI50 [9]: 569 nM; TGI [9]: 1990 nM; GI50 [10]: 1430 nM; TGI [10]: 3380 nM; GI50 [11]: 1550 nM; TGI [11]: 5770 nM; GI50 [12]: 2080 nM; TGI [12]: 3960 nM; GI50 [13]: 3220 nM; TGI [13]: 81000 nM; GI50 [14]: 1020 nM; TGI [14]: 2450 nM; GI50 [15]: 2000 nM; TGI [15]: 3740 nM; GI50 [16]: 1370 nM; TGI [16]: 5420 nM; GI50 [17]: 1580 nM; TGI [17]: 2970 nM; GI50 [18]: 1530 nM; TGI [18]: 3150 nM; GI50 [19]: 1520 nM; TGI [19]: 3020 nM; GI50 [20]: 1270 nM; TGI [20]: 3210 nM; GI50 [21]: 1800 nM; TGI [21]: 4790 nM; GI50 [22]: 1400 nM; TGI [22]: 2880 nM; GI50 [23]: 2270 nM; TGI [23]: 4620 nM; GI50 [24]: 1570 nM; TGI [24]: 3030 nM; GI50 [25]: 1670 nM; TGI [25]: 3430 nM; GI50 [26]: 782 nM; TGI [26]: 2290 nM; GI50 [27]: 1220 nM; TGI [27]: 2530 nM; GI50 [28]: 2130 nM; TGI [28]: 3860 nM; GI50 [29]: 1780 nM; TGI [29]: 3830 nM; GI50 [30]: 1850 nM; TGI [30]: 4980 nM; GI50 [31]: 1440 nM; TGI [31]: 4680 nM; GI50 [32]: 1620 nM; TGI [32]: 3240 nM; GI50 [33]: 1670 nM; TGI [33]: 4740 nM; GI50 [34]: 1750 nM; TGI [34]: 4220 nM; GI50 [35]: 1760 nM; TGI [35]: 3170 nM; GI50 [36]: 2330 nM; TGI [36]: 4370 nM; GI50 [37]: 1970 nM; TGI [37]: 4500 nM; GI50 [38]: 1630 nM; TGI [38]: 2980 nM; GI50 [39]: 2680 nM; TGI [39]: 6210 nM; GI50 [40]: 1410 nM; TGI [40]: 2910 nM; GI50 [41]: 1550 nM; TGI [41]: 4280 nM; GI50 [42]: 1900 nM; TGI [42]: 4950 nM; GI50 [43]: 1630 nM; TGI [43]: 3930 nM; GI50 [44]: 1070 nM; TGI [44]: 3530 nM; GI50 [45]: 2010 nM; TGI [45]: 4200 nM; GI50 [46]: 1580 nM; TGI [46]: 3120 nM; GI50 [47]: 1610 nM; TGI [47]: 3390 nM; GI50 [48]: 1410 nM; TGI [48]: 2810 nM; GI50 [49]: 1330 nM; TGI [49]: 2680 nM

Q: `O=C(CI)NC1Oc2ccccc2-c2oc(=O)c(-c3ccccc3)cc21` (stereo unspecified) was tested. Which GI50 [1] did it give?
A: 441 nM

Q: And the TGI [1]?
A: 1580 nM

Q: What about the GI50 [2] of the same compound?
A: 1850 nM

Q: And the TGI [2]?
A: 3620 nM

Q: What about the GI50 [3] of the same compound?
A: 2360 nM

Q: And the TGI [3]?
A: 6160 nM

Q: And the GI50 [50]?
A: 1700 nM

Q: And the TGI [50]?
A: 3240 nM

Q: What about the GI50 [5] of the same compound?
A: 1670 nM

Q: And the TGI [5]?
A: 3050 nM

Q: What about the GI50 [51] of the same compound?
A: 305 nM

Q: And the TGI [51]?
A: > 100000 nM

Q: And the GI50 [6]?
A: 1810 nM

Q: And the TGI [6]?
A: 3920 nM

Q: What about the GI50 [7] of the same compound?
A: 1570 nM

Q: What about the TGI [7] of the same compound?
A: 2980 nM

Q: And the GI50 [8]?
A: 8460 nM

Q: What about the TGI [8] of the same compound?
A: 26600 nM

Q: What about the GI50 [11] of the same compound?
A: 2090 nM

Q: And the TGI [11]?
A: 4940 nM

Q: And the GI50 [12]?
A: 1870 nM

Q: And the TGI [12]?
A: 3810 nM

Q: And the GI50 [13]?
A: 2400 nM

Q: What about the TGI [13] of the same compound?
A: 7280 nM

Q: And the GI50 [16]?
A: 1320 nM

Q: What about the TGI [16] of the same compound?
A: 11900 nM

Q: And the GI50 [52]?
A: 1770 nM

Q: And the TGI [52]?
A: 3460 nM

Q: What about the GI50 [17] of the same compound?
A: 307 nM

Q: And the TGI [17]?
A: 1070 nM

Q: And the GI50 [18]?
A: 1670 nM

Q: What about the TGI [18] of the same compound?
A: 3200 nM

Q: What about the GI50 [19] of the same compound?
A: 1730 nM

Q: And the TGI [19]?
A: 3270 nM

Q: And the GI50 [22]?
A: 1680 nM

Q: And the TGI [22]?
A: 3160 nM

Q: And the GI50 [23]?
A: 3320 nM

Q: What about the TGI [23] of the same compound?
A: 29000 nM

Q: What about the GI50 [26] of the same compound?
A: 1300 nM

Q: And the TGI [26]?
A: 2710 nM

Q: What about the GI50 [29] of the same compound?
A: 1790 nM

Q: And the TGI [29]?
A: 4470 nM

Q: And the GI50 [31]?
A: 2080 nM

Q: What about the TGI [31] of the same compound?
A: 4790 nM

Q: And the GI50 [32]?
A: 1500 nM

Q: And the TGI [32]?
A: 3000 nM

Q: And the GI50 [33]?
A: 1680 nM

Q: What about the TGI [33] of the same compound?
A: 3360 nM

Q: And the GI50 [34]?
A: 1770 nM

Q: And the TGI [34]?
A: 3370 nM

Q: What about the GI50 [35] of the same compound?
A: 1730 nM

Q: And the TGI [35]?
A: 3130 nM

Q: What about the GI50 [36] of the same compound?
A: 2170 nM

Q: What about the TGI [36] of the same compound?
A: 5430 nM

Q: And the GI50 [37]?
A: 1810 nM

Q: What about the TGI [37] of the same compound?
A: 3310 nM

Q: What about the GI50 [38] of the same compound?
A: 3260 nM

Q: What about the TGI [38] of the same compound?
A: 11400 nM

Q: And the GI50 [39]?
A: 1830 nM

Q: What about the TGI [39] of the same compound?
A: 3480 nM

Q: And the GI50 [53]?
A: 2640 nM

Q: What about the TGI [53] of the same compound?
A: 7540 nM

Q: And the GI50 [41]?
A: 1540 nM

Q: What about the TGI [41] of the same compound?
A: 2940 nM

Q: And the GI50 [42]?
A: 357 nM

Q: And the TGI [42]?
A: > 100000 nM

Q: What about the GI50 [44] of the same compound?
A: 1790 nM

Q: And the TGI [44]?
A: 4440 nM

Q: What about the GI50 [45] of the same compound?
A: 1710 nM

Q: And the TGI [45]?
A: 3130 nM

Q: What about the GI50 [46] of the same compound?
A: 1730 nM

Q: And the TGI [46]?
A: 3220 nM

Q: And the GI50 [47]?
A: 2070 nM

Q: What about the TGI [47] of the same compound?
A: 4840 nM

Q: What about the GI50 [48] of the same compound?
A: 1730 nM

Q: And the TGI [48]?
A: 3250 nM

Q: And the GI50 [49]?
A: 1860 nM

Q: And the TGI [49]?
A: 3280 nM
